One test has as its system F. verticillioides. Conditions: cited from earlier work.
For the next test, the system named is Alternaria alternata. In words: mycelial growth inhibition on potato dextrose agar. The class given is cell-based. How it is done:
(§1) Alternaria alternata, Epicoccum nigrum, Pestalotia guepinii, Drechslera sp., and Fusarium avenaceum were isolated from infected leaves and roots of C. acuminata. The strains were cultured and maintained on potato dextrose agar (PDA) medium.
(§2) CPT, trifolin, and hyperoside (isolated from Camptotheca as above) were tested for their ability to inhibit these fungi, as compard with two classical fungicides, Bravo (active ingredient: chlorothalonil) and Maneb (active ingredient: manganous ethylenebis [dithiocarbamate]), as references. The concentrations of the conventional fungicides were those recommended by the manufacturers (Bravo: 10,000 μg/mL; Maneb: 3,000 μg/mL).
(§3) In addition to a negative control (0) and two fungicides as positive controls for each of the five isolated pathogens, seven levels of CPT were tested with each of the fungi and three levels of trifolin and hyperoside were tested with P. guepinii, Drechslera sp. and F. avenaceum, respectively (see FIG. 8).
(§4) Trifolin and hyperoside treatments were applied at concentrations of 50, 100, and 150 μg/mL, respectively. For all cultures, final concentrations were made in molten (50° C.) potato dextrose agar (Difco), and 10 mL aliquots were poured into Petri dishes (85 mm in diameter). Within 24 hours after pouring, each of the plates was inoculated with one of the five fungi. One 5×5 mm mycelial plug was cut from the actively growing front of a 2 week old colony, then placed with the inoculum side down in the center of each treatment plate. The cultures were incubated at 24° C. For all experiments, five replicate plates were inoculated for each treatment.
(§5) Mycelial growth on each plate was observed daily and recorded on a transparent film for the first two weeks, then recorded on the 16th, 20th, 23rd, and 28th days. Colony radii were measured along four vertical radial directions. The mean of the four measurements was calculated as the growth rate on each plate. Mean and standard error were calculated from the five replicates of each treatment. For each of the fungi, values of EC50 (effective concentration that caused 50% inhibition of mycelial growth) and MIC (the minimum inhibitory concentration) of each compound were estimated.

Another test concerns Drechslera sp. In words: mycelial growth inhibition on potato dextrose agar. The class given is cell-based. Conditions: for EC50: estimated; for inhibiting fungus: at all experimental concentrations; for inhibition at 50 µg/mL: 480 h, 50 μg/mL, day 20, read-out: colonies inhibited. Here is the method:
as §1, §2, §3, §4, §5

For a further test, the system named is Epicoccum nigrum. The test can be described thus: mycelial growth inhibition on potato dextrose agar. The class given is cell-based. How it is done: as §1, §2, §3, §4, §5
Test [1] has as its system Fusarium avenaceum. In words: mycelial growth inhibition on potato dextrose agar. The class given is cell-based. Conditions: for inhibition at 10 µg/mL: read-out: inhibition of mycelial growth, CPT 10 μg/mL; for inhibiting fungus: at all experimental concentrations; for inhibition at 50 µg/mL / inhibition at 100 µg/mL: 672 h, day 28, read-out: inhibited fungal growth; for inhibition at 50 µg/mL: 50 μg/mL; for inhibition at 100 µg/mL: 100 μg/mL; for EC50: F. avenaceum, estimated, read-out: EC50 (effective concentration that caused 50% inhibition of mycelial growth). How it is done: as §1, §2, §3, §4, §5

In test [2] the test system is Pestalotia guepinii. The test can be described thus: mycelial growth inhibition on potato dextrose agar. The class given is cell-based. How it is done:
as §1, §2, §3, §4, §5

The subject of test [3] is Pestalotia guepinii. The test can be described thus: mycelial growth inhibition on potato dextrose agar. The class given is cell-based. Conditions: for EC50: read-out: EC50 (effective concentration that caused 50% inhibition of mycelial growth); for MIC: read-out: MIC (minimal inhibitory concentration); for inhibition at 50 µg/mL: 264 h, 50 μg/mL, day 11, read-out: colonies inhibited.

For test [4], the system named is Fusarium avenaceum. In words: mycelial growth inhibition on potato dextrose agar. The class given is cell-based. Conditions: in vitro; at the same concentrations as the dithiocarbamate (100 ppm).
The next test deals with F. oxysporum f. sp. lini. Conditions: 100 ppm (100 μg/mL); cited from earlier work.
For another test, the system named is Botrytis cinerea. Conditions: in vitro tests and TLC bioautography; Sridhar et al. (2003); cited from earlier work.
A further test relates to Alternaria mali. Conditions: mycelial growth; cited from earlier work.
Test [5] has as its system F. oxysporum f.sp. lycopersici. Conditions: mycelial growth; cited from earlier work.
Where [6] appears, read: at relatively higher concentrations.
Setting [7] is: Drechslera sp., read-out: EC50 (effective concentration that caused 50% inhibition of mycelial growth).

Converted amounts (≈) assume the structure as drawn. Where two headings read alike, the source gives them in different places.

As to `COc1cc([C@H]2OC[C@H]3[C@@H]2CO[C@H]3c2ccc(O)c(OC)c2)ccc1O` (racemic) [(±) pinoresinol], the MIC in the test on F. verticillioides was 1,000 μg/mL.
`COc1cc(C=CC=O)ccc1O` [4-hydroxy-3-methoxycinnamaldehyde]: the MIC with F. verticillioides was 400 µg/mL (≈ 2240 µM).
With `CC[C@@]1(O)C(=O)OCc2c1cc1n(c2=O)Cc2cc3ccccc3nc2-1` [CPT, 4(S)-4-ethyl-4-hydroxy-1H-pyrano-(3′,4′:6,7) indolizino (1,2,-b) quinoline-3,14 (4H,12H)-dione], the EC50 is less than 25 µg/mL with Alternaria alternata (Alternaria alternata, read-out: EC50 (effective concentration that caused 50% inhibition of mycelial growth)); roughly 10 µg/mL (≈ 28.7 µM) with Drechslera sp. (Drechslera, read-out: EC50 (effective concentration that caused 50% inhibition of mycelial growth), Drechslera sp.); roughly 10 µg/mL (≈ 28.7 µM) in the test on Epicoccum nigrum (Epicoccum nigrum, read-out: EC50 (effective concentration that caused 50% inhibition of mycelial growth), E. nigrum, estimated); roughly 10 µg/mL (≈ 28.7 µM) with Pestalotia guepinii [3]. Moreover, the MIC is 75 µg/mL (≈ 215 µM) in the test on Alternaria alternata (Alternaria alternata, A. alternata, read-out: MIC (minimal inhibitory concentration)); 100 µg/mL (≈ 287 µM) in the test with Drechslera sp. (Drechslera, read-out: MIC (minimal inhibitory concentration)); 75 µg/mL (≈ 215 µM) in the test with Epicoccum nigrum (Epicoccum nigrum, E. nigrum, read-out: MIC (minimal inhibitory concentration)); 125 µg/mL (≈ 359 µM) in the test with Fusarium avenaceum [1] (Fusarium avenaceum, read-out: MIC (minimal inhibitory concentration; complete inhibition)); 125 µg/mL (≈ 359 µM) in the test on Pestalotia guepinii [3]. Moreover, the inhibition at 10 µg/mL in the test on Alternaria alternata (Alternaria alternata, CPT 10 μg/mL, read-out: colonies inhibited) is 41 to 66%; in the test with Fusarium avenaceum [1] (Fusarium avenaceum, first several days of the experiment), 70 to 80%; with Fusarium avenaceum [1] (Fusarium avenaceum, later stages), roughly 40%. For the same compound, in the test on Alternaria alternata (CPT 10 μg/mL, control 13 days), the “days for mycelium to completely cover the agar surface” value is on record as 23 days. Besides, the “day colonies started to grow” value in the test on Alternaria alternata (CPT 25 μg/mL) is reported as “second day”. In the test on Alternaria alternata (CPT 25 μg/mL, 28 days vs. 13 days for control), this compound came in with a colony expansion reduced of 215%. In addition, in the test with Alternaria alternata (CPT 25 μg/mL, control 13 days), the “days to cover the agar surface” value is reported as 28 days. The “colonies smaller than controls” value worked out at 52.8% in the test on Alternaria alternata (CPT 25 μg/mL, day 13) and 65% with Epicoccum nigrum (CPT 10 μg/mL, day 10). The “control of fungal growth” value in the test with Alternaria alternata (CPT 75 μg/mL and above) is “totally controlled”. In addition, the “suppressing growth” value in the test with Alternaria alternata (setting [6]) and in the test on Epicoccum nigrum (setting [6]) was “effective” each time. Further, the “growth inhibition” value with Drechslera sp. (CPT 100 μg/mL and higher) is reported as “completely inhibited fungal growth”; in the test with Epicoccum nigrum (CPT 75 μg/mL and higher), “totally inhibited growth”; with Fusarium avenaceum [1] (CPT 125 and 150 μg/mL), “completely inhibited growth”; in the test on Pestalotia guepinii [2] (CPT 125 μg/mL and above) it was “totally inhibited growth”. Also, the “inhibition compared with Bravo” value in the test on Drechslera sp. (CPT at all experimental levels (10-150 μg/mL) vs Bravo 10,000 μg/mL) is reported as “greater inhibition rates than Bravo”. Further, the “inhibiting fungus” value in the test with Drechslera sp. and in the test on Fusarium avenaceum [1] was “highly effective” in each case. In the test on Epicoccum nigrum (CPT 10 μg/mL and 25 μg/mL, 28 days vs. 10 days for control), this compound returned a delayed mycelial growth of 280%. Also, in the test with Epicoccum nigrum (CPT 10 μg/mL and 25 μg/mL, control 10 days), the “days to cover agar surface” value is 28 days. Further, the colony radii in the test with Epicoccum nigrum (CPT 25 μg/mL, day 15) is 20 mm; in the test with Epicoccum nigrum (CPT 50 μg/mL, day 20), 8 mm. For the same compound, the day growth began with Epicoccum nigrum (CPT 50 μg/mL) is reported as 8th day. The inhibition at 50 µg/mL in the test with Epicoccum nigrum (Epicoccum nigrum, CPT 50 μg/mL, read-out: inhibited growth) is greater than 90%. Further, the inhibition at 30 µg/mL in the test on Fusarium avenaceum [1] (Fusarium avenaceum, read-out: inhibited the rate of mycelial growth, CPT 30 μg/mL) was greater than 60%. The reduced mycelial growth in the test on Pestalotia guepinii [2] (CPT 10 μg/mL, 11th day) was determined as 43.5%. Also, the “day colonies reached the petri dish margins” value in the test on Pestalotia guepinii [2] (CPT 10 μg/mL, control 11th day) was 20 days. Also, the inhibited growth in the test on Fusarium avenaceum [4] was 70%.
Take `CCN(CC)C(=S)[S-].[Na+]` [N,N-diethyldithiocarbamic acid sodium salt]: the inhibit growth in the test with F. oxysporum f. sp. lini was 7-30%.
In the case of `COc1cc(C=O)ccc1O` [Vanillin], the MIC in the test on F. verticillioides was 600 µg/mL (≈ 3940 µM).
In the case of `CC(C)=CCC/C(C)=C/CO` [geraniol], the “minimum concentration (MIC)” value with Botrytis cinerea is 160 µg/mL.
`O=c1c(O[C@@H]2O[C@H](CO)[C@H](O)[C@H](O)[C@H]2O)c(-c2ccc(O)c(O)c2)oc2cc(O)cc(O)c12` [hyperoside, quercetin-3-O-β-D-galactopyranoside]: the “growth inhibition” value is “little growth by day 28” with Drechslera sp. (100 μg/mL, 28-day experiment); “completely inhibited growth” with Drechslera sp. (150 μg/mL); “completely inhibited fungal growth during the first four weeks” in the test with Fusarium avenaceum [1] (150 μg/mL). Besides, the EC50 was less than 50 µg/mL in the test with Drechslera sp. (setting [7]); 50 to 100 µg/mL (≈ 108 to 215 µM) in the test with Fusarium avenaceum [1] (Fusarium avenaceum); roughly 50 µg/mL (≈ 108 µM) in the test with Pestalotia guepinii [3] (P. guepinii, estimated). Further, the inhibition at 50 µg/mL came to 74.3% in the test with Drechslera sp. (Drechslera), 31.6% in the test with Fusarium avenaceum [1] (Fusarium avenaceum) and 53.8% in the test with Pestalotia guepinii [3]. Also, the “inhibiting fungus” value in the test with Drechslera sp. and in the test with Fusarium avenaceum [1] was “highly effective” throughout. Besides, in the test on Fusarium avenaceum [1] (Fusarium avenaceum), the inhibition at 100 µg/mL came to 72.6%. Moreover, the MIC in the test on Pestalotia guepinii [3] (P. guepinii) is less than 125 µg/mL. The compound also yielded an inhibited growth in the test with Fusarium avenaceum [4] of 70%.
With `O=c1c(O[C@@H]2O[C@H](CO)[C@H](O)[C@H](O)[C@H]2O)c(-c2ccc(O)cc2)oc2cc(O)cc(O)c12` [trifolin, kaempferol-3-O-β-D-galactopyranoside], the “growth inhibition” value with Drechslera sp. (100 μg/mL, 28-day experiment) was “totally controlled the fungus”; in the test with Drechslera sp. (150 μg/mL), “completely inhibited growth”; in the test with Fusarium avenaceum [1] (150 μg/mL), “totally controlled the fungus during the entire experiment”. Further, the EC50 in the test with Drechslera sp. (setting [7]) was less than 50 µg/mL; with Fusarium avenaceum [1] (Fusarium avenaceum), 50 to 100 µg/mL (≈ 112 to 223 µM); with Pestalotia guepinii [3] (P. guepinii, estimated), roughly 50 µg/mL (≈ 112 µM). The values for the inhibition at 50 µg/mL in the test with Drechslera sp. (Drechslera), in the test with Fusarium avenaceum [1] (Fusarium avenaceum) and in the test on Pestalotia guepinii [3] were 76.1%, 35.8% and 53.4%, respectively. Further, the “inhibiting fungus” value with Drechslera sp. and in the test on Fusarium avenaceum [1] was “highly effective” each time. Moreover, the inhibition at 100 µg/mL with Fusarium avenaceum [1] (Fusarium avenaceum) came out at 74.8%. Moreover, the MIC in the test on Pestalotia guepinii [3] (P. guepinii) is less than 125 µg/mL. Besides, the inhibited growth in the test with Fusarium avenaceum [4] turned out to be 70%.
For the compound `C/C=C\c1cc(OC)c(OC)cc1OC` [β-Asarone], the MIC (in the test with Alternaria mali; in test [5]) was greater than 100 µg/mL in each case.

The values are drawn from patent US20070134282A1, “Methods for inhibiting fungal pathogen infestation and propogation” (Stephen F. Austin State University, priority 2005, published 2007).
